Test results published in patent US6114310A, “Efflux pump inhibitors” (priority 1998, dated 2000).

Test system: Pseudomonas aeruginosa PAM1001
Assay: microbe, parasite or virus in culture
Type: cell-based
In short: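 Checkerboard broth microdilution (NCCLS) with the efflux pump inhibitor and levofloxacin, each diluted along one axis of the plate, in Mueller Hinton Broth. Inoculum 5×10^5 CFU/ml from early-log culture; incubation 20 h at 35° C. Growth read at 650 nm and visually.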

[1] = Table 1, EPI Conc. μg/ml (number not given; column between 10 and 40 μg/ml)
[2] = Table 2, EPI Conc. μg/ml (number not given; column between 10 and 40 μg/ml)

## D-Lysyl-β-N-(Ethylthioethyl)alanine 2-Naphthylamide Trifluoroacetate [Example 25]
Table 1, EPI Conc. 0 μg/ml
  Levofloxacin MIC Against P. aeruginosa PAM1001 in Presence of Efflux Pump Inhibitor (EPI), Minimum Inhibitory Concentration: 4 µg/mL
Table 1, EPI Conc. 0.625 μg/ml
  Levofloxacin MIC Against P. aeruginosa PAM1001 in Presence of Efflux Pump Inhibitor (EPI), Minimum Inhibitory Concentration: 4 µg/mL
Table 1, EPI Conc. 5 μg/ml
  Levofloxacin MIC Against P. aeruginosa PAM1001 in Presence of Efflux Pump Inhibitor (EPI), Minimum Inhibitory Concentration: 1 µg/mL
Table 1, EPI Conc. 10 μg/ml
  Levofloxacin MIC Against P. aeruginosa PAM1001 in Presence of Efflux Pump Inhibitor (EPI), Minimum Inhibitory Concentration: 0.06 µg/mL
Table 1, EPI Conc. 40 μg/ml
  Levofloxacin MIC Against P. aeruginosa PAM1001 in Presence of Efflux Pump Inhibitor (EPI), Minimum Inhibitory Concentration: 0.06 µg/mL
Table 1, EPI Conc. […]
  Levofloxacin MIC Against P. aeruginosa PAM1001 in Presence of Efflux Pump Inhibitor (EPI), Minimum Inhibitory Concentration: 4 µg/mL
[1]
  Levofloxacin MIC Against P. aeruginosa PAM1001 in Presence of Efflux Pump Inhibitor (EPI), Minimum Inhibitory Concentration: 0.06 µg/mL
Table 2, EPI Conc. 0 μg/ml
  Levofloxacin MIC Against P. aeruginosa PAM1001 in Presence of Efflux Pump Inhibitor (EPI), Minimum Inhibitory Concentration: 4 µg/mL
Table 2, EPI Conc. 0.625 μg/ml
  Levofloxacin MIC Against P. aeruginosa PAM1001 in Presence of Efflux Pump Inhibitor (EPI), Minimum Inhibitory Concentration: 4 µg/mL
Table 2, EPI Conc. 5 μg/ml
  Levofloxacin MIC Against P. aeruginosa PAM1001 in Presence of Efflux Pump Inhibitor (EPI), Minimum Inhibitory Concentration: 1 µg/mL
Table 2, EPI Conc. 10 μg/ml
  Levofloxacin MIC Against P. aeruginosa PAM1001 in Presence of Efflux Pump Inhibitor (EPI), Minimum Inhibitory Concentration: 0.06 µg/mL
Table 2, EPI Conc. 40 μg/ml
  Levofloxacin MIC Against P. aeruginosa PAM1001 in Presence of Efflux Pump Inhibitor (EPI), Minimum Inhibitory Concentration: 0.06 µg/mL
[2]
  Levofloxacin MIC Against P. aeruginosa PAM1001 in Presence of Efflux Pump Inhibitor (EPI), Minimum Inhibitory Concentration: 0.06 µg/mL
Table 3, EPI Conc. 0 μg/ml
  Levofloxacin MIC Against P. aeruginosa PAM1001 in Presence of Efflux Pump Inhibitor (EPI), Minimum Inhibitory Concentration: 4 µg/mL
Table 3, EPI Conc. 0.625 μg/ml
  Levofloxacin MIC Against P. aeruginosa PAM1001 in Presence of Efflux Pump Inhibitor (EPI), Minimum Inhibitory Concentration: 4 µg/mL
Table 3, EPI Conc. 5 μg/ml
  Levofloxacin MIC Against P. aeruginosa PAM1001 in Presence of Efflux Pump Inhibitor (EPI), Minimum Inhibitory Concentration: 2 µg/mL
Table 3, EPI Conc. 10 μg/ml
  Levofloxacin MIC Against P. aeruginosa PAM1001 in Presence of Efflux Pump Inhibitor (EPI), Minimum Inhibitory Concentration: 1 µg/mL
Table 3, EPI Conc. 40 μg/ml
  Levofloxacin MIC Against P. aeruginosa PAM1001 in Presence of Efflux Pump Inhibitor (EPI), Minimum Inhibitory Concentration: 0.25 µg/mL
Table 3, EPI Conc. […]
  Levofloxacin MIC Against P. aeruginosa PAM1001 in Presence of Efflux Pump Inhibitor (EPI), Minimum Inhibitory Concentration: 4 µg/mL
Table 3, EPI Conc. μg/ml (number not given; column between 10 and 40 μg/ml)
  Levofloxacin MIC Against P. aeruginosa PAM1001 in Presence of Efflux Pump Inhibitor (EPI), Minimum Inhibitory Concentration: 0.50 µg/mL
Table 4, EPI Conc. 0 μg/ml
  Levofloxacin MIC Against P. aeruginosa PAM1001 in Presence of Efflux Pump Inhibitor (EPI), Minimum Inhibitory Concentration: 4 µg/mL
Table 4, EPI Conc. 0.625 μg/ml
  Levofloxacin MIC Against P. aeruginosa PAM1001 in Presence of Efflux Pump Inhibitor (EPI), Minimum Inhibitory Concentration: 4 µg/mL
Table 4, EPI Conc. 5 μg/ml
  Levofloxacin MIC Against P. aeruginosa PAM1001 in Presence of Efflux Pump Inhibitor (EPI), Minimum Inhibitory Concentration: 0.125 µg/mL
Table 4, EPI Conc. 10 μg/ml
  Levofloxacin MIC Against P. aeruginosa PAM1001 in Presence of Efflux Pump Inhibitor (EPI), Minimum Inhibitory Concentration: 0.06 µg/mL
Table 4, EPI Conc. 40 μg/ml
  Levofloxacin MIC Against P. aeruginosa PAM1001 in Presence of Efflux Pump Inhibitor (EPI), Minimum Inhibitory Concentration: 0.125 µg/mL
Table 4, EPI Conc. μg/ml (number not given; column between 10 and 40 μg/ml)
  Levofloxacin MIC Against P. aeruginosa PAM1001 in Presence of Efflux Pump Inhibitor (EPI), Minimum Inhibitory Concentration: 0.125 µg/mL

## β-(2-Thiaizolyl)alanyl-Nα -methylornithine 2-naphthylamide [Compound 30 (Table 1)]
Table 1, EPI Conc. 0 μg/ml
  Levofloxacin MIC Against P. aeruginosa PAM1001 in Presence of Efflux Pump Inhibitor (EPI), Minimum Inhibitory Concentration: 4 µg/mL
Table 1, EPI Conc. 0.625 μg/ml
  Levofloxacin MIC Against P. aeruginosa PAM1001 in Presence of Efflux Pump Inhibitor (EPI), Minimum Inhibitory Concentration: 4 µg/mL
Table 1, EPI Conc. 5 μg/ml
  Levofloxacin MIC Against P. aeruginosa PAM1001 in Presence of Efflux Pump Inhibitor (EPI), Minimum Inhibitory Concentration: 1 µg/mL
Table 1, EPI Conc. 10 μg/ml
  Levofloxacin MIC Against P. aeruginosa PAM1001 in Presence of Efflux Pump Inhibitor (EPI), Minimum Inhibitory Concentration: 0.25 µg/mL
Table 1, EPI Conc. 40 μg/ml
  Levofloxacin MIC Against P. aeruginosa PAM1001 in Presence of Efflux Pump Inhibitor (EPI), Minimum Inhibitory Concentration: 0.25 µg/mL
[1]
  Levofloxacin MIC Against P. aeruginosa PAM1001 in Presence of Efflux Pump Inhibitor (EPI), Minimum Inhibitory Concentration: 0.25 µg/mL
Table 2, EPI Conc. 0 μg/ml
  Levofloxacin MIC Against P. aeruginosa PAM1001 in Presence of Efflux Pump Inhibitor (EPI), Minimum Inhibitory Concentration: 4 µg/mL
Table 2, EPI Conc. 0.625 μg/ml
  Levofloxacin MIC Against P. aeruginosa PAM1001 in Presence of Efflux Pump Inhibitor (EPI), Minimum Inhibitory Concentration: 4 µg/mL
Table 2, EPI Conc. 5 μg/ml
  Levofloxacin MIC Against P. aeruginosa PAM1001 in Presence of Efflux Pump Inhibitor (EPI), Minimum Inhibitory Concentration: 2 µg/mL
Table 2, EPI Conc. 10 μg/ml
  Levofloxacin MIC Against P. aeruginosa PAM1001 in Presence of Efflux Pump Inhibitor (EPI), Minimum Inhibitory Concentration: 1 µg/mL
Table 2, EPI Conc. 40 μg/ml
  Levofloxacin MIC Against P. aeruginosa PAM1001 in Presence of Efflux Pump Inhibitor (EPI), Minimum Inhibitory Concentration: 0.25 µg/mL
Table 2, EPI Conc. […]
  Levofloxacin MIC Against P. aeruginosa PAM1001 in Presence of Efflux Pump Inhibitor (EPI), Minimum Inhibitory Concentration: 4 µg/mL
[2]
  Levofloxacin MIC Against P. aeruginosa PAM1001 in Presence of Efflux Pump Inhibitor (EPI), Minimum Inhibitory Concentration: 0.50 µg/mL

## 4-(O-Methylcarboxyamido)phenylalanyl-Nα -methylornithine 2-naphthylamide [Compound 32 (Table 1)]
Table 1, EPI Conc. 0 μg/ml
  Levofloxacin MIC Against P. aeruginosa PAM1001 in Presence of Efflux Pump Inhibitor (EPI), Minimum Inhibitory Concentration: 4 µg/mL
Table 1, EPI Conc. 0.625 μg/ml
  Levofloxacin MIC Against P. aeruginosa PAM1001 in Presence of Efflux Pump Inhibitor (EPI), Minimum Inhibitory Concentration: 4 µg/mL
Table 1, EPI Conc. 5 μg/ml
  Levofloxacin MIC Against P. aeruginosa PAM1001 in Presence of Efflux Pump Inhibitor (EPI), Minimum Inhibitory Concentration: 0.50 µg/mL
Table 1, EPI Conc. 10 μg/ml
  Levofloxacin MIC Against P. aeruginosa PAM1001 in Presence of Efflux Pump Inhibitor (EPI), Minimum Inhibitory Concentration: 0.125 µg/mL
Table 1, EPI Conc. 40 μg/ml
  Levofloxacin MIC Against P. aeruginosa PAM1001 in Presence of Efflux Pump Inhibitor (EPI), Minimum Inhibitory Concentration: 0.06 µg/mL
[1]
  Levofloxacin MIC Against P. aeruginosa PAM1001 in Presence of Efflux Pump Inhibitor (EPI), Minimum Inhibitory Concentration: 0.06 µg/mL
Table 2, EPI Conc. 0 μg/ml
  Levofloxacin MIC Against P. aeruginosa PAM1001 in Presence of Efflux Pump Inhibitor (EPI), Minimum Inhibitory Concentration: 4 µg/mL
Table 2, EPI Conc. 0.625 μg/ml
  Levofloxacin MIC Against P. aeruginosa PAM1001 in Presence of Efflux Pump Inhibitor (EPI), Minimum Inhibitory Concentration: 4 µg/mL
Table 2, EPI Conc. 5 μg/ml
  Levofloxacin MIC Against P. aeruginosa PAM1001 in Presence of Efflux Pump Inhibitor (EPI), Minimum Inhibitory Concentration: 2 µg/mL
Table 2, EPI Conc. 10 μg/ml
  Levofloxacin MIC Against P. aeruginosa PAM1001 in Presence of Efflux Pump Inhibitor (EPI), Minimum Inhibitory Concentration: 0.50 µg/mL
Table 2, EPI Conc. 40 μg/ml
  Levofloxacin MIC Against P. aeruginosa PAM1001 in Presence of Efflux Pump Inhibitor (EPI), Minimum Inhibitory Concentration: 0.03 µg/mL
Table 2, EPI Conc. […]
  Levofloxacin MIC Against P. aeruginosa PAM1001 in Presence of Efflux Pump Inhibitor (EPI), Minimum Inhibitory Concentration: 4 µg/mL
[2]
  Levofloxacin MIC Against P. aeruginosa PAM1001 in Presence of Efflux Pump Inhibitor (EPI), Minimum Inhibitory Concentration: 0.25 µg/mL
